Legend:
[1] = system: tyrosinase activity in B16 melanoma cells; assay: Tyrosinase activity in wild type B16 melanoma cells (L-DOPA to DOPAchrome), proxy for ATP7A inhibition; type: cell-based; conditions: for IC50: Mus musculus, B16 cells
Text: Tyrosinase is a cuproenzyme involved in melanogenesis that receives copper via ATP7A in the secretory pathway. […] Thus, reductions in tyrosinase activity in wild type B16 cells can be used as a proxy for inhibition of ATP7A. […]

ATP7A = target: T1, ATP7A (Homo sapiens, UniProt Q04656); assay: Microscale thermophoresis (MST) binding to GFP-ATP7A in HEK293 cell lysates; conditions: for Kd: MST analysis, read-out: ATP7A Binding Affinity KD
T1 construct: expressed in transfected cells; host or cells: HEK293 (detergent-free lysate)
T1 sequence (Q04656 1-1500): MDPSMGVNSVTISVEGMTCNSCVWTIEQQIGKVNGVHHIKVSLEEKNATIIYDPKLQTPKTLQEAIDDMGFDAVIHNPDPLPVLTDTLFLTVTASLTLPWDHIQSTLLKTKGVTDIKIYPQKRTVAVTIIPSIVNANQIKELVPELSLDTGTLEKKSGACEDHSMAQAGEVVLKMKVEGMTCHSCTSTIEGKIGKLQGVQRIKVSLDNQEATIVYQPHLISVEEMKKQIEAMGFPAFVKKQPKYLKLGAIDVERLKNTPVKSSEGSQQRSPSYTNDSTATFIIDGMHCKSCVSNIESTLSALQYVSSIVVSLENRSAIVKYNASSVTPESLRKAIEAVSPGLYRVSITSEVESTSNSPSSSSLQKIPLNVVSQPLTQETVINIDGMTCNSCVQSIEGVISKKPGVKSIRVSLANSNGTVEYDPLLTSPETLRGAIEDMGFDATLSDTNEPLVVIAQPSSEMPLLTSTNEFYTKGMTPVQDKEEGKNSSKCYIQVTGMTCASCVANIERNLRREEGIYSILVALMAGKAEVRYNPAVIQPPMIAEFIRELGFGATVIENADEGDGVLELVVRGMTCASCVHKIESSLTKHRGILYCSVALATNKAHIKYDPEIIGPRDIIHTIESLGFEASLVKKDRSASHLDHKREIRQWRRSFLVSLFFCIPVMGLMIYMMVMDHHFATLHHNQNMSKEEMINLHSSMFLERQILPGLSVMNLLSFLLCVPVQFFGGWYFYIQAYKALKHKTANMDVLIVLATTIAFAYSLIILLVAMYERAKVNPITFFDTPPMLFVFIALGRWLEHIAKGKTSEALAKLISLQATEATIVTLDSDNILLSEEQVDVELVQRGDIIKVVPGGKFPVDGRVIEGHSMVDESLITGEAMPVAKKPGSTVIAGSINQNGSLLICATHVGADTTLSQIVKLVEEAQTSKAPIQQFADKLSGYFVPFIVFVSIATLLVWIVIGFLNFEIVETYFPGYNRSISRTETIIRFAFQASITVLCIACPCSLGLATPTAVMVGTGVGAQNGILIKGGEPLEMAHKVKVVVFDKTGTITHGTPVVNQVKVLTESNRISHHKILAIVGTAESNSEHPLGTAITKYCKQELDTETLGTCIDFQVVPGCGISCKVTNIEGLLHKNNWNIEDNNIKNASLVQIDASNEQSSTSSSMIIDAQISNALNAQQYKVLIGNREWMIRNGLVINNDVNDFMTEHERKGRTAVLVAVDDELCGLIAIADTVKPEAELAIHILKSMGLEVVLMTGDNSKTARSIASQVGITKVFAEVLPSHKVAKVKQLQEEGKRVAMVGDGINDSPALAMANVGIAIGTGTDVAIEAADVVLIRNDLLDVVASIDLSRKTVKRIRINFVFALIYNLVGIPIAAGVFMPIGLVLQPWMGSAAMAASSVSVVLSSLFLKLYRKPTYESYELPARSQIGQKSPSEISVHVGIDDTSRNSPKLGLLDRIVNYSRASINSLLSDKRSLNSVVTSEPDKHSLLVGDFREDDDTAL

GFP alone = assay: Microscale thermophoresis (MST), GFP alone as negative control; type: binding
Text: (§1) Coordinating residues D935 and E798 are predicted to bind copper during transport.

LOX activity = LOX activity secreted into conditioned media of cancer cells; type: cell-based; conditions: 4T1 breast cancer cells, compared with MKV3
ATP7B = target: T2, ATP7B (Homo sapiens, UniProt P35670); assay: Microscale thermophoresis (MST) binding to GFP-ATP7B in HEK293 cell lysates; conditions: MST
T2 construct: expressed in transfected cells; host or cells: HEK293 (detergent-free lysate)
T2 sequence (P35670 1-1465): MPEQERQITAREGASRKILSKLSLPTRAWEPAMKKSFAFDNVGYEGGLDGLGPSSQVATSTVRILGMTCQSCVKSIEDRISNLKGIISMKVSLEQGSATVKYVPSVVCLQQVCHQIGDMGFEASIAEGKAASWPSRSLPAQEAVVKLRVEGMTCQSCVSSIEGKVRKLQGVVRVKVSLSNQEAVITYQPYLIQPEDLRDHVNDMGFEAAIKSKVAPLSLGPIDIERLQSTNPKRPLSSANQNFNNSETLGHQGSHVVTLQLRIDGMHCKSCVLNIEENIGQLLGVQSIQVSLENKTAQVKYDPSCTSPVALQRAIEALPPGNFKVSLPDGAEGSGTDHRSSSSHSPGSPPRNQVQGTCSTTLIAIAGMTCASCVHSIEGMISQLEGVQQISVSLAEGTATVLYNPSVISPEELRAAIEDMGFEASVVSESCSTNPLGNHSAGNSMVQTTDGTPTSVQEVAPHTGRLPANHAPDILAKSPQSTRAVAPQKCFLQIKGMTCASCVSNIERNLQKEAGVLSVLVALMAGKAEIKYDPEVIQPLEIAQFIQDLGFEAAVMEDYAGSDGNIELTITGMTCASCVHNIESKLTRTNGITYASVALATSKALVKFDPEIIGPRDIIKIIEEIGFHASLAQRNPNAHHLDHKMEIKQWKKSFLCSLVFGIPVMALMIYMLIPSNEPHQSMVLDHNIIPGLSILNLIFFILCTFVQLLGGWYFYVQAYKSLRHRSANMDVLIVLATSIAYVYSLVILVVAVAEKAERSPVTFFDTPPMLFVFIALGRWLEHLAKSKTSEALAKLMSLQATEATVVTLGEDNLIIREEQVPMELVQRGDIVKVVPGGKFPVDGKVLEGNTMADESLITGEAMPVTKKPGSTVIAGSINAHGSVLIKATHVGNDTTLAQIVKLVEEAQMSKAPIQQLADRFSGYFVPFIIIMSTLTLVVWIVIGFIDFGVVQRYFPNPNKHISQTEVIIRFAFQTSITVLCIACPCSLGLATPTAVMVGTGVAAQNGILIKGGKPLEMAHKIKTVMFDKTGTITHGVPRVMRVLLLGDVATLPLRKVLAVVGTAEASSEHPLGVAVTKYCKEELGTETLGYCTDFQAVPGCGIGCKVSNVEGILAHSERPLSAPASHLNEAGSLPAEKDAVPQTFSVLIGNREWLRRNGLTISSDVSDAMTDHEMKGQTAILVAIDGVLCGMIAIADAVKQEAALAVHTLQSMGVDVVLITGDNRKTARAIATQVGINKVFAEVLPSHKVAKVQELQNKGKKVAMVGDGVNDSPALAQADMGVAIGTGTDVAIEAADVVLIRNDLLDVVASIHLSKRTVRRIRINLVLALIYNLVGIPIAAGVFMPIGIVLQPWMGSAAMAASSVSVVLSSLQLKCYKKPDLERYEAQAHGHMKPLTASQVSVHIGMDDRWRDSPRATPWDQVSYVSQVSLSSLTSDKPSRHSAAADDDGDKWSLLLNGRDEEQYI
Text: as §1

[2] = Cytotoxicity in B16 cells by MTT and crystal violet assays; type: cell-based; conditions: mouse, B16 melanoma cells; B16 cells, MTT and crystal violet assays; read-out: half-maximal cytotoxic concentration (CC50)
Text: This is consistent with lower affinity of MKV1 for ATP7A (FIG. 6E).

[3] = system: ΔcopA/ΔcopB strain of S. aureus; assay: Growth of copper-sensitive ΔcopA/ΔcopB mutant strain of S. aureus; type: cell-based, Staphylococcus aureus; conditions: copper alone 50 μM
Description: Methicillin-resistant Staphylococcus aureus (MRSA) is a human pathogen that expresses two Cu-transporting P1B-type ATPases, CopA and CopB, which are known to enhance the virulence of this bacterium. 19A illustrates CopA and CopB copper exporters at the plasma membrane of S. aureus. […] The growth of the ΔcopA/ΔcopB strain was inhibited by approximately 50% when copper alone (50 μM) was added to the culture medium.
Wild type MRSA expresses two copper-exporting P1B-type ATPases, CopA and CopB that are required for copper tolerance (FIG. 19A). […] The same experiment was performed using MRSA in which both CopA and CopB genes were deleted (ΔcopA/ΔcopB). Consistent with the known role of CopA and CopB in copper tolerance, the growth of the ΔcopA/ΔcopB strain was inhibited by approximately 50% when copper alone (50 μM) was added to the culture medium (FIG. 19C).

Compound	IC50 [1] [µM]	Kd (ATP7A) [µM]	also measured
N#CC(C(=O)Nc1cccc(C(F)(F)F)c1)C(=S)Nc1ccccc1 (stereo not drawn) [MKV1F]	8.719 ± 0.014	1 ± 0.059	
N#CC(C(=O)Nc1ccccc1)C(=S)Nc1ccccc1 (stereo not drawn) [MKV1B]	21.87 ± 0.129	0.354 ± 0.021	
N#CC(C(=O)Nc1ccccc1)C(=S)Nc1ccccc1Cl (stereo not drawn) [MKV1E]	11.7 ± 0.001	1.06 ± 0.054	
O=C(CC(=S)Nc1ccccc1)Nc1ccccc1 [MKV1]	29.98 ± 0.029	1.83 ± 0.151	in situ tyrosinase activity ([1]; 50 μM, 24 h, wild type B16 melanoma cells): loss of tyrosinase activity; binding to GFP alone (GFP alone): not to GFP alone; LOX activity (LOX activity): inhibited LOX activity but only at higher concentrations than for MKV3; fold difference in affinity for ATP7B between MKV3 (higher) and MKV1 (lower) (ATP7B): approximately 10 fold; fold difference in affinity for ATP7A between MKV3 (higher) and MKV1 (lower) (ATP7A; MST): approximately 10 fold; CC50 [2]: ~270 µM
copper			inhibition of growth of the ΔcopA/ΔcopB strain [3]: approximately 50%
O=C(CC(=S)Nc1ccccc1Cl)Nc1ccccc1 [MKV1A]	21.559 ± 0.005	0.363 ± 0.024	
O=C(CC(=S)Nc1ccccc1)Nc1cccc(C(F)(F)F)c1 [MKV1C]	16.18 ± 0.023	0.43 ± 0.016	
O=C(CC(=S)Nc1ccccc1Cl)Nc1cccc(C(F)(F)F)c1 [MKV1D]	12.222 ± 0.005	0.708 ± 0.042	

Reference: patent US20250017889A1, “INHIBITORS OF P1B-TYPE ATPASES” (THE CURATORS OF THE UNIVERSITY OF MISSOURI, priority 2021, published 2025)
